PubChem BioAssay AID248 (DTP/NCI, 2004)
Values joined by “and” are separate entries in the source; they are usually repeats but may differ in a detail not shown here. Identical values can stand only once. Toxic doses and inconclusive results are not listed.

Tested on: L1210 leukemia ip in BDF1 mice, survival T/C
Assay: NCI In Vivo Anticancer Drug Screen. Data for tumor model L1210 Leukemia (intraperitoneal) in B6D2F1 (BDF1) mice
Settings: endpoint: mean survival time, higher = longer survival
Summary of the method: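 Read-out is survival time, reported as the treated-group measurement over the vehicle-control measurement.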

[1] = dose: 100.0 mg/kg/injection, schedule: Q01DX009 (ip), vehicle: Klucel (hydroxypropylcellulose) (HPC)
[2] = dose: 200.0 mg/kg/injection, schedule: Q01DX009 (ip), vehicle: Klucel (hydroxypropylcellulose) (HPC)
[3] = dose: 400.0 mg/kg/injection, schedule: Q01DX009 (ip), vehicle: Klucel (hydroxypropylcellulose) (HPC)
[4] = dose: 100.0 mg/kg/injection, schedule: Q01DX001 (ip), vehicle: saline
[5] = dose: 100.0 mg/kg/injection, schedule: Q01DX009 (ip), vehicle: saline with Tween-80
[6] = dose: 100.0 mg/kg/injection, schedule: Q04DX003 (ip), vehicle: saline with Tween-80
[7] = dose: 200.0 mg/kg/injection, schedule: Q04DX003 (ip), vehicle: saline with Tween-80
[8] = dose: 100.0 mg/kg/injection, schedule: Q04DX003 (ip), vehicle: Klucel (hydroxypropylcellulose) (HPC)
[9] = dose: 200.0 mg/kg/injection, schedule: Q04DX003 (ip), vehicle: Klucel (hydroxypropylcellulose) (HPC)
[10] = dose: 400.0 mg/kg/injection, schedule: Q04DX003 (ip), vehicle: Klucel (hydroxypropylcellulose) (HPC)

`CCN(CC)CCNc1ccc(C)c2sc3ccccc3c(=O)c12` (tested in a mixture with another compound) was tested, and the T/C (dose: 6.0 mg/kg/injection, schedule: Q01DX009 (ip), vehicle: carboxymethylcellulose (CMC)) was 102 % of control, the T/C (dose: 12.0 mg/kg/injection, schedule: Q01DX009 (ip), vehicle: carboxymethylcellulose (CMC)) was 98 % of control and the T/C (dose: 17.0 mg/kg/injection, schedule: Q01DX015 (ip), vehicle: saline) was 102 % of control. The T/C (dose: 25.0 mg/kg/injection, schedule: Q01DX009 (ip), vehicle: carboxymethylcellulose (CMC)) was 109 % of control, the T/C (dose: 26.0 mg/kg/injection, schedule: Q01DX015 (ip), vehicle: carboxymethylcellulose (CMC)) was 108 % of control and the T/C (dose: 26.0 mg/kg/injection, schedule: Q01DX015 (ip), vehicle: saline) was 101 % of control. The T/C (dose: 35.0 mg/kg/injection, schedule: Q01DX009 (ip), vehicle: saline) was 102 % of control, the T/C (dose: 39.0 mg/kg/injection, schedule: Q01DX015 (ip), vehicle: carboxymethylcellulose (CMC)) was 110 % of control and the T/C (dose: 40.0 mg/kg/injection, schedule: Q01DX015 (ip), vehicle: saline) was 113 % of control and 118 % of control. For the same molecule, the T/C (dose: 59.0 mg/kg/injection, schedule: Q01DX015 (ip), vehicle: carboxymethylcellulose (CMC)) was 116 % of control, the T/C (dose: 75.0 mg/kg/injection, schedule: Q01DX009 (ip), vehicle: saline) was 104 % of control and the T/C (dose: 89.0 mg/kg/injection, schedule: Q01DX015 (ip), vehicle: saline) was 202 % of control. The T/C (dose: 133.0 mg/kg/injection, schedule: Q01DX009 (ip), vehicle: carboxymethylcellulose (CMC)) was 123 % of control, the T/C (dose: 175.0 mg/kg/injection, schedule: Q01DX001 (ip), vehicle: saline) was 100 % of control and the T/C (dose: 200.0 mg/kg/injection, schedule: Q01DX015 (ip), vehicle: saline) was 112 % of control. For the same molecule, the T/C (dose: 265.0 mg/kg/injection, schedule: Q01DX001 (ip), vehicle: saline) was 105 % of control, the T/C (dose: 300.0 mg/kg/injection, schedule: Q01DX015 (ip), vehicle: carboxymethylcellulose (CMC)) was 91 % of control and the T/C (dose: 400.0 mg/kg/injection, schedule: Q01DX001 (ip), vehicle: saline) was 122 % of control.

With `Nc1ccc2c(O)c(N=Nc3ccc4c(O)cc(S(=O)(=O)O)cc4c3)c(S(=O)(=O)O)cc2c1` the T/C [1] was 100 % of control, the T/C (dose: 100.0 mg/kg/injection, schedule: Q04DX003 (ip), vehicle: saline) was 96 % of control and the T/C [2] was 112 % of control. The T/C (dose: 200.0 mg/kg/injection, schedule: Q04DX003 (ip), vehicle: saline) was 100 % of control, the T/C [3] was 88 % of control and the T/C (dose: 400.0 mg/kg/injection, schedule: Q04DX003 (ip), vehicle: saline) was 94 % of control.

For `C(=N\Nc1nc2ccccc2s1)/c1ccc2ccccc2n1`, the T/C [1] was 96 % of control and the T/C [2] was 96 % of control.

`C#CCSC(=S)OCC` was tested, and the T/C (dose: 100.0 mg/kg/injection, schedule: Q04DX003 (ip), vehicle: other) was 95 % of control and the T/C (dose: 200.0 mg/kg/injection, schedule: Q04DX003 (ip), vehicle: other) was 101 % of control.

`OCC1OC(n2nnc3c(=S)nc[nH]c32)C(O)C1O` (stereo not drawn) was tested, and the T/C (dose: 3.3 mg/kg/injection, schedule: Q01DX009 (ip), vehicle: saline) was 101 % of control, the T/C (dose: 5.0 mg/kg/injection, schedule: Q01DX009 (ip), vehicle: saline) was 95 % of control and the T/C (dose: 7.5 mg/kg/injection, schedule: Q01DX009 (ip), vehicle: saline) was 94 % of control. The T/C (dose: 11.25 mg/kg/injection, schedule: Q01DX009 (ip), vehicle: saline) was 101 % of control, the T/C (dose: 15.0 mg/kg/injection, schedule: Q01DX001 (ip), vehicle: saline) was 96 % of control and the T/C (dose: 18.0 mg/kg/injection, schedule: Q01DX009 (ip), vehicle: saline) was 106 % of control. For the same molecule, the T/C (dose: 25.0 mg/kg/injection, schedule: Q01DX001 (ip), vehicle: saline) was 98 % of control and 100 % of control, the T/C (dose: 27.0 mg/kg/injection, schedule: Q01DX009 (ip), vehicle: saline) was 101 % of control and the T/C (dose: 38.0 mg/kg/injection, schedule: Q01DX001 (ip), vehicle: saline) was 94 % of control. For the same molecule, the T/C (dose: 75.0 mg/kg/injection, schedule: Q01DX001 (ip), vehicle: saline) was 102 % of control, the T/C [4] was 94 % of control and 98 % of control and 106 % of control and the T/C (dose: 200.0 mg/kg/injection, schedule: Q01DX001 (ip), vehicle: saline) was 110 % of control.

With `O=C(CCl)NC(CO)C(=O)O` (stereo not drawn) the T/C [5] was 89 % of control, the T/C [6] was 103 % of control and the T/C (dose: 200.0 mg/kg/injection, schedule: Q01DX009 (ip), vehicle: saline with Tween-80) was 87 % of control. For the same molecule, the T/C [7] was 94 % of control.

`Nc1nccc2c1ncn2C1OC(CO)C(O)C1O` (stereo not drawn) was tested, and the T/C (dose: 100.0 mg/kg/injection, schedule: Q01DX005 (ip), vehicle: saline) was 108 % of control and the T/C (dose: 200.0 mg/kg/injection, schedule: Q01DX005 (ip), vehicle: saline) was 109 % of control.

With `CCCCNC(C)(C)CCl` the T/C (dose: 25.0 mg/kg/injection, schedule: Q01DX009 (ip), vehicle: saline) was 103 % of control, the T/C (dose: 25.0 mg/kg/injection, schedule: Q04DX003 (ip), vehicle: water) was 110 % of control and the T/C (dose: 50.0 mg/kg/injection, schedule: Q01DX009 (ip), vehicle: saline) was 102 % of control. For the same molecule, the T/C (dose: 50.0 mg/kg/injection, schedule: Q01DX009 (ip), vehicle: water) was 91 % of control, the T/C (dose: 50.0 mg/kg/injection, schedule: Q04DX003 (ip), vehicle: water) was 116 % of control and the T/C [4] was 104 % of control. For the same molecule, the T/C (dose: 100.0 mg/kg/injection, schedule: Q04DX003 (ip), vehicle: water) was 98 % of control and 102 % of control.

For `CCCCCCCCCCCCCCCCCCNC(=O)N(CC)c1ccccc1`, the T/C [1] was 101 % of control, the T/C [8] was 93 % of control and the T/C [2] was 98 % of control. For the same molecule, the T/C [9] was 101 % of control, the T/C [3] was 106 % of control and the T/C [10] was 92 % of control.

In the case of `CC(C)N(C(=O)Nc1cc([N+](=O)[O-])ccc1Cl)c1ccccc1`, the T/C (dose: 12.5 mg/kg/injection, schedule: Q01DX009 (ip), vehicle: Klucel (hydroxypropylcellulose) (HPC)) is reported as 89 % of control, the T/C (dose: 25.0 mg/kg/injection, schedule: Q01DX009 (ip), vehicle: Klucel (hydroxypropylcellulose) (HPC)) is reported as 96 % of control and the T/C (dose: 50.0 mg/kg/injection, schedule: Q01DX009 (ip), vehicle: Klucel (hydroxypropylcellulose) (HPC)) is reported as 98 % of control.

`COc1ccc(-n2c(=O)c(N=Nc3ccccc3)c(O)n(-c3ccc(I)cc3)c2=S)cc1` was tested, and the T/C [6] was 97 % of control, the T/C [7] was 100 % of control and the T/C (dose: 400.0 mg/kg/injection, schedule: Q04DX003 (ip), vehicle: saline with Tween-80) was 116 % of control.

For `Clc1ccc2c(c1)C(=P(c1ccccc1)(c1ccccc1)c1ccccc1)c1cc(Cl)cc(Cl)c1-2`, the T/C (dose: 100.0 mg/kg/injection, schedule: Q01DX001 (ip), vehicle: Klucel (hydroxypropylcellulose) (HPC)) was 96 % of control, the T/C [8] was 102 % of control and the T/C (dose: 200.0 mg/kg/injection, schedule: Q01DX001 (ip), vehicle: Klucel (hydroxypropylcellulose) (HPC)) was 96 % of control. For the same molecule, the T/C [9] was 95 % of control, the T/C (dose: 400.0 mg/kg/injection, schedule: Q01DX001 (ip), vehicle: Klucel (hydroxypropylcellulose) (HPC)) was 91 % of control and the T/C [10] was 93 % of control.

With `CSc1ccnc2[nH]ncc12` the T/C (dose: 100.0 mg/kg/injection, schedule: Q04DX002 (ip), vehicle: DMSO) was 94 % of control and the T/C (dose: 200.0 mg/kg/injection, schedule: Q04DX002 (ip), vehicle: DMSO) was 105 % of control.

With `Cc1c(Cl)cccc1CC(Cl)C#N` (stereo not drawn) the T/C (dose: 12.5 mg/kg/injection, schedule: Q01DX009 (ip), vehicle: saline with Tween-80) was 97 % of control, the T/C (dose: 25.0 mg/kg/injection, schedule: Q01DX009 (ip), vehicle: saline with Tween-80) was 90 % of control and the T/C (dose: 50.0 mg/kg/injection, schedule: Q01DX009 (ip), vehicle: saline with Tween-80) was 87 % of control. For the same molecule, the T/C [5] was 89 % of control.

With `Nc1nc2ncc(CNc3ccc(CCC(=O)NC(CCC(=O)O)C(=O)O)cc3)nc2c(=O)[nH]1` (stereo not drawn) the T/C (dose: 50.0 mg/kg/injection, schedule: Q01DX001 (ip), vehicle: saline with Tween-80) was 108 % of control, the T/C (dose: 100.0 mg/kg/injection, schedule: Q01DX001 (ip), vehicle: saline with Tween-80) was 100 % of control and the T/C (dose: 200.0 mg/kg/injection, schedule: Q01DX001 (ip), vehicle: saline with Tween-80) was 101 % of control.

With `CC(c1ccccc1)c1ccc(O)cc1` (stereo not drawn) the T/C (dose: 100.0 mg/kg/injection, schedule: Q01DX009 (ip), vehicle: saline sonified) was 97 % of control, the T/C (dose: 200.0 mg/kg/injection, schedule: Q01DX009 (ip), vehicle: saline sonified) was 95 % of control and the T/C (dose: 400.0 mg/kg/injection, schedule: Q01DX009 (ip), vehicle: saline sonified) was 97 % of control.
